Molecular target: MDM2 (Homo sapiens, UniProt Q00987)
Assay: MDM2 binding screen of Libraries 3 and 4: displacement of fluorescent probe F-M8 at 750 nM macrocycle
Conditions: Panel b, Library 3: 63 scaffolds combinatorially acylated with 15 carboxylic acids at 30 picomole scale; displacement of fluorescent peptide probe; macrocycle 750 nM
Procedure, shortened: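 Cyclic peptide scaffolds were acylated in DMSO with carboxylic acids (20 equiv.), HBTU and DABCO for 6 h at room temperature. Reactions were quenched overnight in 100 mM Tris-Cl pH 7.4, 0.01% Tween20. The fluorescein conjugate was also competed with nutlin-3a.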

Sequence of MDM2 (Q00987 whole entry): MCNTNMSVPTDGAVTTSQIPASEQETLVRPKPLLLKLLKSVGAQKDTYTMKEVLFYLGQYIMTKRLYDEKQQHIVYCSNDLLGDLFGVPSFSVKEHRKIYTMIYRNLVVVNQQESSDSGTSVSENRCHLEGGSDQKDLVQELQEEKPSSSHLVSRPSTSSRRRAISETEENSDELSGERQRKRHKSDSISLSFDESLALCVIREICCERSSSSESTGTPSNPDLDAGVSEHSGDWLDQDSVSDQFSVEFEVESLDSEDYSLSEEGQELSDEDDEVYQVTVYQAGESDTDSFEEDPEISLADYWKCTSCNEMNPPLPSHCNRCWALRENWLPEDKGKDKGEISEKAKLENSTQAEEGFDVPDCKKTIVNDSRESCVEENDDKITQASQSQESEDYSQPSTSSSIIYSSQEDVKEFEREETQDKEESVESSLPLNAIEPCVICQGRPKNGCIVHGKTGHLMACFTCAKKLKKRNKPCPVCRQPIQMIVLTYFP

| Structure (SMILES) | fraction of fluorescent probe displaced |
| --- | --- |
| Cn1cc(C[C@@H]2NC(=O)[C@@H](CNC(=O)/C=C/c3ccc4ccccc4c3)NC(=O)[C@H]3CCCN(C3)C(=O)CCSSCCNC2=O)c2ccccc21 [X-Nip-D-Dap-Me-Trp + Acid 112] | 0.021 |
| Cn1cc(C[C@@H]2NC(=O)[C@@H](CNC(=O)CCS(=O)(=O)c3ccccc3)NC(=O)[C@H]3CCCN(C3)C(=O)CCSSCCNC2=O)c2ccccc21 [X-Nip-D-Dap-Me-Trp + Acid 114] | 0.015 |
| Cn1cc(C[C@@H]2NC(=O)[C@@H](CNC(=O)C3COc4ccccc4O3)NC(=O)[C@H]3CCCN(C3)C(=O)CCSSCCNC2=O)c2ccccc21 (stereo partly drawn) [X-Nip-D-Dap-Me-Trp + Acid 115] | -0.012 |
| CN1C(=O)[C@@H](CNC(=O)c2ccc(Cl)s2)NC(=O)[C@H]2CCCN(C2)C(=O)CCSSCCNC(=O)[C@@H]1Cc1c[nH]c2ccccc12 [X-Nip-D-Dap-NMe-Trp + Acid 14] | 0.00133 |
| CN1C(=O)[C@@H](CNC(=O)c2ccc(Cl)cc2)NC(=O)[C@H]2CCCN(C2)C(=O)CCSSCCNC(=O)[C@@H]1Cc1c[nH]c2ccccc12 [X-Nip-D-Dap-NMe-Trp + Acid 25] | 0.00133 |
| CN1C(=O)[C@@H](CNC(=O)/C=C/c2ccncc2)NC(=O)[C@H]2CCCN(C2)C(=O)CCSSCCNC(=O)[C@@H]1Cc1c[nH]c2ccccc12 [X-Nip-D-Dap-NMe-Trp + Acid 106] | -0.00844 |
| CN1C(=O)[C@@H](CNC(=O)c2ccc3ccccc3c2)NC(=O)[C@H]2CCCN(C2)C(=O)CCSSCCNC(=O)[C@@H]1Cc1c[nH]c2ccccc12 [X-Nip-D-Dap-NMe-Trp + Acid 107] | 0.031 |
| CN1C(=O)[C@@H](CNC(=O)/C=C/c2ccc(OCc3ccccc3)cc2)NC(=O)[C@H]2CCCN(C2)C(=O)CCSSCCNC(=O)[C@@H]1Cc1c[nH]c2ccccc12 [X-Nip-D-Dap-NMe-Trp + Acid 110] | -0.00533 |
| CN1C(=O)[C@@H](CNC(=O)CCS(=O)(=O)c2ccccc2)NC(=O)[C@H]2CCCN(C2)C(=O)CCSSCCNC(=O)[C@@H]1Cc1c[nH]c2ccccc12 [X-Nip-D-Dap-NMe-Trp + Acid 114] | 0.008 |
| O=C(NC[C@H]1NC(=O)[C@H]2CCCN(C2)C(=O)CCSSCCNC(=O)[C@H](Cc2c[nH]c3ccccc23)NC1=O)c1ccc(Cl)cc1 [X-Nip-D-Dap-Trp + Acid 25] | -0.00533 |
| O=C(/C=C/c1ccncc1)NC[C@H]1NC(=O)[C@H]2CCCN(C2)C(=O)CCSSCCNC(=O)[C@H](Cc2c[nH]c3ccccc23)NC1=O [X-Nip-D-Dap-Trp + Acid 106] | -0.002 |
| O=C(NC[C@H]1NC(=O)[C@H]2CCCN(C2)C(=O)CCSSCCNC(=O)[C@H](Cc2c[nH]c3ccccc23)NC1=O)c1cccc(Oc2ccccc2)c1 [X-Nip-D-Dap-Trp + Acid 111] | 0.008 |
| O=C(/C=C/c1ccc2ccccc2c1)NC[C@H]1NC(=O)[C@H]2CCCN(C2)C(=O)CCSSCCNC(=O)[C@H](Cc2c[nH]c3ccccc23)NC1=O [X-Nip-D-Dap-Trp + Acid 112] | -0.012 |
| CC(Oc1cccc(Cl)c1)C(=O)NC[C@H]1NC(=O)[C@H]2CCCN(C2)C(=O)CCSSCCNC(=O)[C@H](Cc2c[nH]c3ccccc23)NC1=O (stereo partly drawn) [X-Nip-D-Dap-Trp + Acid 113] | -0.019 |
| O=C(CCS(=O)(=O)c1ccccc1)NC[C@H]1NC(=O)[C@H]2CCCN(C2)C(=O)CCSSCCNC(=O)[C@H](Cc2c[nH]c3ccccc23)NC1=O [X-Nip-D-Dap-Trp + Acid 114] | -0.00533 |
| O=C(NC[C@@H]1NC(=O)[C@H]2CCCN(C2)C(=O)CCSSCCNC(=O)[C@H](Cc2cccc3ccccc23)NC1=O)c1ccc(Cl)s1 [X-Nip-Dap-1-NaI + Acid 14] | 0.028 |
| O=C(NC[C@@H]1NC(=O)[C@H]2CCCN(C2)C(=O)CCSSCCNC(=O)[C@H](Cc2cccc3ccccc23)NC1=O)c1ccc2ccccc2c1 [X-Nip-Dap-1-NaI + Acid 107] | 0.056 |
| O=C(/C=C/c1ccc(Cl)cc1)NC[C@@H]1NC(=O)[C@H]2CCCN(C2)C(=O)CCSSCCNC(=O)[C@H](Cc2cccc3ccccc23)NC1=O [X-Nip-Dap-1-NaI + Acid 108] | 0.041 |
| O=C(/C=C/c1ccc(OCc2ccccc2)cc1)NC[C@@H]1NC(=O)[C@H]2CCCN(C2)C(=O)CCSSCCNC(=O)[C@H](Cc2cccc3ccccc23)NC1=O [X-Nip-Dap-1-NaI + Acid 110] | 0.008 |
| O=C(/C=C/c1ccc2ccccc2c1)NC[C@@H]1NC(=O)[C@H]2CCCN(C2)C(=O)CCSSCCNC(=O)[C@H](Cc2cccc3ccccc23)NC1=O [X-Nip-Dap-1-NaI + Acid 112] | 0.095 |
| CC(Oc1cccc(Cl)c1)C(=O)NC[C@@H]1NC(=O)[C@H]2CCCN(C2)C(=O)CCSSCCNC(=O)[C@H](Cc2cccc3ccccc23)NC1=O (stereo partly drawn) [X-Nip-Dap-1-NaI + Acid 113] | -0.019 |
| O=C(NC[C@@H]1NC(=O)[C@H]2CCCN(C2)C(=O)CCSSCCNC(=O)[C@H](Cc2ccc3ccccc3c2)NC1=O)c1ccc(Cl)s1 [X-Nip-Dap-2-Nal + Acid 14] | 0.015 |
| O=C(/C=C/c1ccc(Cl)cc1)NC[C@@H]1NC(=O)[C@H]2CCCN(C2)C(=O)CCSSCCNC(=O)[C@H](Cc2ccc3ccccc3c2)NC1=O [X-Nip-Dap-2-Nal + Acid 108] | 0.021 |
| O=C(/C=C/c1ccc(OCc2ccccc2)cc1)NC[C@@H]1NC(=O)[C@H]2CCCN(C2)C(=O)CCSSCCNC(=O)[C@H](Cc2ccc3ccccc3c2)NC1=O [X-Nip-Dap-2-Nal + Acid 110] | 0.021 |
| O=C(/C=C/c1ccc2ccccc2c1)NC[C@@H]1NC(=O)[C@H]2CCCN(C2)C(=O)CCSSCCNC(=O)[C@H](Cc2ccc3ccccc3c2)NC1=O [X-Nip-Dap-2-Nal + Acid 112] | 0.021 |

Same assay, conditions: Panel c, Library 4: best nine scaffolds and 15 additional carboxylic acids; displacement of fluorescent probe

| Structure (SMILES) | fraction of fluorescent probe displaced |
| --- | --- |
| O=C(/C=C/c1ccc(F)cc1)NC[C@@H]1NC(=O)[C@H]2CCCN(C2)C(=O)CCSSCCNC(=O)[C@H](Cc2cccc3ccccc23)NC1=O [X-Nip-Dap-1-NaI + Acid 116] | 0.052 |
| CCOc1ccc(/C=C/C(=O)NC[C@@H]2NC(=O)[C@H]3CCCN(C3)C(=O)CCSSCCNC(=O)[C@H](Cc3cccc4ccccc34)NC2=O)cc1 [X-Nip-Dap-1-NaI + Acid 117] | 0.069 |
| CCCOc1ccc(/C=C/C(=O)NC[C@@H]2NC(=O)[C@H]3CCCN(C3)C(=O)CCSSCCNC(=O)[C@H](Cc3cccc4ccccc34)NC2=O)cc1 [X-Nip-Dap-1-NaI + Acid 118] | -0.00464 |
| O=C(/C=C/c1ccc(Cl)c(Cl)c1)NC[C@@H]1NC(=O)[C@H]2CCCN(C2)C(=O)CCSSCCNC(=O)[C@H](Cc2cccc3ccccc23)NC1=O [X-Nip-Dap-1-NaI + Acid 119] | 0.0035 |
| O=C(/C=C/c1cccc(Cl)c1)NC[C@@H]1NC(=O)[C@H]2CCCN(C2)C(=O)CCSSCCNC(=O)[C@H](Cc2cccc3ccccc23)NC1=O [X-Nip-Dap-1-NaI + Acid 121] | -0.00464 |
| O=C(/C=C/c1cccc(C(F)(F)F)c1)NC[C@@H]1NC(=O)[C@H]2CCCN(C2)C(=O)CCSSCCNC(=O)[C@H](Cc2cccc3ccccc23)NC1=O [X-Nip-Dap-1-NaI + Acid 122] | 0.0035 |
| CC(=Cc1ccccc1)C(=O)NCC1NC(=O)C2CCCN(C2)C(=O)CCSSCCNC(=O)C(Cc2cccc3ccccc23)NC1=O (stereo not drawn) [X-Nip-Dap-1-NaI + Acid 123] | -0.013 |
| CC(C)c1ccc(/C=C/C(=O)NC[C@@H]2NC(=O)[C@H]3CCCN(C3)C(=O)CCSSCCNC(=O)[C@H](Cc3cccc4ccccc34)NC2=O)cc1 [X-Nip-Dap-1-NaI + Acid 127] | 0.0035 |
| O=C(NC[C@@H]1NC(=O)[C@H]2CCCN(C2)C(=O)CCSSCCNC(=O)[C@H](Cc2cccc3ccccc23)NC1=O)c1cnc2ccccc2n1 [X-Nip-Dap-1-NaI + Acid 130] | 0.020 |
| O=C(/C=C/c1ccc(F)cc1)NC[C@@H]1NC(=O)[C@H]2CCCN(C2)C(=O)CCSSCCNC(=O)[C@H](Cc2ccc3ccccc3c2)NC1=O [X-Nip-Dap-2-Nal + Acid 116] | 0.052 |
| CCOc1ccc(/C=C/C(=O)NC[C@@H]2NC(=O)[C@H]3CCCN(C3)C(=O)CCSSCCNC(=O)[C@H](Cc3ccc4ccccc4c3)NC2=O)cc1 [X-Nip-Dap-2-Nal + Acid 117] | 0.069 |
| CCCOc1ccc(/C=C/C(=O)NC[C@@H]2NC(=O)[C@H]3CCCN(C3)C(=O)CCSSCCNC(=O)[C@H](Cc3ccc4ccccc4c3)NC2=O)cc1 [X-Nip-Dap-2-Nal + Acid 118] | 0.012 |
| O=C(/C=C/c1ccc(Cl)c(Cl)c1)NC[C@@H]1NC(=O)[C@H]2CCCN(C2)C(=O)CCSSCCNC(=O)[C@H](Cc2ccc3ccccc3c2)NC1=O [X-Nip-Dap-2-Nal + Acid 119] | 0.020 |
| O=C(/C=C/c1cccc(C(F)(F)F)c1)NC[C@@H]1NC(=O)[C@H]2CCCN(C2)C(=O)CCSSCCNC(=O)[C@H](Cc2ccc3ccccc3c2)NC1=O [X-Nip-Dap-2-Nal + Acid 122] | 0.012 |
| CC(=Cc1ccccc1)C(=O)NCC1NC(=O)C2CCCN(C2)C(=O)CCSSCCNC(=O)C(Cc2ccc3ccccc3c2)NC1=O (stereo not drawn) [X-Nip-Dap-2-Nal + Acid 123] | 0.012 |
